Data taken from US20140309192A1, “MODULATORS OF THE G PROTEIN-COUPLED MAS RECEPTOR AND THE TREATMENT OF DISORDERS RELATED THERETO” (ARENA PHARMACEUTICALS, INC., priority 2011, published 2014).

biological target: T1, human Mas receptor (Homo sapiens, UniProt P04201); experiment: HTRF IP1 assay, HEK293 cells expressing human Mas receptor; format: cell-based; conditions: HTRF IP1 assay, human Mas receptor (Table B.2); read-out: IC50
T1 construct: expressed in transfected cells; host or cells: HEK293 (ATCC CRL-1573)
T1 sequence (P04201 1-325): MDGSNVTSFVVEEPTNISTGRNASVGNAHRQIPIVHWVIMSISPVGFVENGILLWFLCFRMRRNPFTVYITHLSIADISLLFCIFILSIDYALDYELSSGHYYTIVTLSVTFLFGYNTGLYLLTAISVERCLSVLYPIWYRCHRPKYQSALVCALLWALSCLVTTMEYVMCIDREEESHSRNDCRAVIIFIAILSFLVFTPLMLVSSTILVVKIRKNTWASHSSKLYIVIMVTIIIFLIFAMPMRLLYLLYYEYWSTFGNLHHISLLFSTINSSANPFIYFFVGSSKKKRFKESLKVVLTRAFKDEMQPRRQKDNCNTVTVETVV
Source text: (§1) Human and rat Mas receptors were either transiently or stably expressed in HEK293 cells. For transient transfections, human or rat Mas in pHM6 vector were transfected into HEK293 cells using Lipofectamine® (Invitrogen #18324-012). HEK293 cells transfected with empty pHM6 vector were used as a control. For generation of stable cell lines, cDNA expression plasmids encoding human or rat Mas genes and the neo^r gene were transfected into HEK293 cells (ATCC# CRL-1573) using Lipofectamine® (Invitrogen) according to the manufacturer's instructions. Stable receptor expressing pools were then generated over 3 weeks by standard techniques in the presence of 500 μg/mL Geneticin® (Gibco). Individual receptor stable pools were dilution cloned using standard techniques and clones were comparatively evaluated in inositol phosphate accumulation assays. Preferred clones were banked and cultured as needed. HEK293 cells were used as controls. The 384 well IP-One HTRF® Assay (Cisbio #62P1APEJ) was performed as described by the manufacturer's protocol. Cells were plated in at 100,000 cells per well in 15 μL DMEM (Gibco #11960) and incubated in a CO2 incubator at 37° C. for 2 h. Five μL of compounds diluted in 2× stimulation buffer plus 0.4% BSA (Sigma (#A3059) were added to each well and serial diluted IP1 standards (Cisbio #62IP1CDA) were also added to corresponding wells at this step. After the cells were incubated for 4 h in a CO2 incubator at 37° C., d2-labeled IP1 and cryptate-labeled anti-IP1 monoclonal antibody diluted in lysis buffer were added sequentially in 10 μL per well and the assay plates were kept in the dark at room temperature overnight. Ratiometric measurements of fluorescence emission at 665 nm and 620 nm were obtained using a Pherastar fluorometer (BMG Labtech). IP1 levels in each well were calculated according to the standard curves on each plate. IC50 values were obtained by fitting data to a nonlinear curve-fitting program (GraphPad Software, Inc., La Jolla Calif.).

**Q.** Which IC50 does the source give for `O=C(Nc1ccc(Cl)cc1N1CCN(CCC(F)(F)F)CC1)c1ccc2c(c1)CNCC2` [Compound 13, N-(4-Chloro-2-(4-(3,3,3-trifluoropropyl)piperazin-1-yl)phenyl)-1,2,3,4-tetrahydroisoquinoline-7-carboxamide] here?
**A.** 88.2 nM

**Q.** How did the IC50 turn out when `CC(C)(C)CCN1CCc2ccc(C(=O)Nc3ccc(Cl)cc3N3CCN(CCC(F)(F)F)CC3)cc2C1` [Compound 17, N-(4-Chloro-2-(4-(3,3,3-trifluoropropyl)piperazin-1-yl)phenyl)-2-(3,3-dimethylbutyl)-1,2,3,4-tetrahydroisoquinoline-7-carboxamide] was run?
**A.** 386 nM

**Q.** `NC(=O)CCN1CCc2ccc(C(=O)Nc3ccc(Cl)cc3N3CCN(CCC(F)(F)F)CC3)cc2C1` [Compound 20, 2-(3-Amino-3-oxopropyl)-N-(4-chloro-2-(4-(3,3,3-trifluoropropyl)piperazin-1-yl)phenyl)-1,2,3,4-tetrahydroisoquinoline-7-carboxamide] was tested. Which IC50 did it give?
**A.** 610 nM

**Q.** With `NCc1ccc(C(=O)Nc2ccc(Cl)cc2N2CCN(CCC(F)(F)F)CC2)c(F)c1` [Compound 26, 4-(Aminomethyl)-N-(4-chloro-2-(4-(3,3,3-trifluoropropyl)piperazin-1-yl)phenyl)-2-fluorobenzamide] as the compound, how does the IC50 read?
**A.** 87.3 nM

**Q.** For `NC(=O)[C@@H]1CCCN1Cc1ccc(C(=O)Nc2ccc(Cl)cc2N2CCN(CCC(F)(F)F)CC2)c(F)c1` [Compound 56, (S)-1-(4-(4-Chloro-2-(4-(3,3,3-trifluoropropyl)piperazin-1-yl)phenylcarbamoyl)-3-fluorobenzyl)pyrrolidine-2-carboxamide], which IC50 is on record?
**A.** 56.1 nM

**Q.** For `NC(=O)[C@H](CO)NCc1ccc(C(=O)Nc2ccc(Cl)cc2N2CCN(CCC(F)(F)F)CC2)c(F)c1` [Compound 76, (S)-4-((1-Amino-3-hydroxy-1-oxopropan-2-ylamino)methyl)-N-(4-chloro-2-(4-(3,3,3-trifluoropropyl)piperazin-1-yl)phenyl)-2-fluorobenzamide], which IC50 is on record?
**A.** 68.2 nM

**Q.** With `O=C1CN(Cc2ccc(C(=O)Nc3ccc(Cl)cc3N3CCN(CCC(F)(F)F)CC3)c(F)c2F)CCN1` [Compound 167, N-(4-Chloro-2-(4-(3,3,3-trifluoropropyl)piperazin-1-yl)phenyl)-2,3-difluoro-4-((3-oxopiperazin-1-yl)methyl)benzamide] as the compound, how does the IC50 read?
**A.** 35.3 nM

**Q.** With `O=C(Nc1cc(Cl)c(Cl)cc1N1CCN(CCC(F)(F)F)CC1)c1ccc(CN2CCS(=O)(=O)CC2)c(F)c1F` [Compound 186, N-(4,5-Dichloro-2-(4-(3,3,3-trifluoropropyl)piperazin-1-yl)phenyl)-2,3-difluoro-4-((1,1-dioxo-thiomorpholin-4-yl)methyl)benzamide] as the compound, how does the IC50 read?
**A.** 49.1 nM

**Q.** Which IC50 does the source give for `O=C(Nc1ccc(Cl)cc1N1CCN(CCC(F)(F)F)CC1)c1ccc(CNCc2nn[nH]n2)c(F)c1F` [Compound 200, 4-(((2H-Tetrazol-5-yl)methylamino)methyl)-N-(4-chloro-2-(4-(3,3,3-trifluoropropyl)piperazin-1-yl)phenyl)-2,3-difluorobenzamide] here?
**A.** 41.7 nM

**Q.** For `O=C(O)CNCc1ccc(C(=O)Nc2ccc(Cl)cc2N2CCN(CCC(F)(F)F)CC2)c(F)c1F` [Compound 202, 2-(4-(4-Chloro-2-(4-(3,3,3-trifluoropropyl)piperazin-1-yl)phenylcarbamoyl)-2,3-difluorobenzylamino)acetic acid], which IC50 is on record?
**A.** 92.1 nM

**Q.** How did the IC50 turn out when `O=C(O)CC1CNCCN1Cc1ccc(C(=O)Nc2ccc(Cl)cc2N2CCN(CCC(F)(F)F)CC2)c(F)c1F` (stereo not shown) [Compound 226, 2-(1-(4-(4-Chloro-2-(4-(3,3,3-trifluoropropyl)piperazin-1-yl)phenylcarbamoyl)-2,3-difluorobenzyl)piperazin-2-yl)acetic acid] was run?
**A.** 93.9 nM

**Q.** `N#CCCNCc1ccc(C(=O)Nc2ccc(Cl)cc2N2CCN(CCC(F)(F)F)CC2)c(F)c1F` [Compound 235, N-(4-Chloro-2-(4-(3,3,3-trifluoropropyl)piperazin-1-yl)phenyl)-4-((2-cyanoethylamino)methyl)-2,3-difluorobenzamide] was tested. Which IC50 did it give?
**A.** 39.1 nM

**Q.** With `NC(=O)[C@@H](COP(=O)(O)O)NCc1ccc(C(=O)Nc2ccc(Cl)cc2N2CCN(CCC(F)(F)F)CC2)c(F)c1F` [Compound 250, (R)-3-Amino-2-(4-(4-chloro-2-(4-(3,3,3-trifluoropropyl)piperazin-1-yl)phenylcarbamoyl)-2,3-difluorobenzylamino)-3-oxopropyl dihydrogenphosphate] as the compound, how does the IC50 read?
**A.** 5.7 nM

**Q.** With `O=C(Nc1ccc(Cl)cc1N1CCN(CCC(F)(F)F)CC1)c1ccc2c(c1)CN(C(=O)c1cccnc1)CC2` [Compound 259, N-(4-Chloro-2-(4-(3,3,3-trifluoropropyl)piperazin-1-yl)phenyl)-2-nicotinoyl-1,2,3,4-tetrahydroisoquinoline-7-carboxamide] as the compound, how does the IC50 read?
**A.** 108 nM

**Q.** With `NC1(C(=O)NCc2ccc(C(=O)Nc3ccc(Cl)cc3N3CCN(CCC(F)(F)F)CC3)c(F)c2F)CCSCC1` [Compound 284, 4-Amino-N-(4-(4-chloro-2-(4-(3,3,3-trifluoropropyl)piperazin-1-yl)phenylcarbamoyl)-2,3-difluorobenzyl)tetrahydro-2H-thiopyran-4-carboxamide] as the compound, how does the IC50 read?
**A.** 57.2 nM

**Q.** How did the IC50 turn out when `O=C(O)CCC(=O)NCc1ccc(C(=O)Nc2ccc(Cl)cc2N2CCN(CCC(F)(F)F)CC2)c(F)c1F` [Compound 293, 4-(4-(4-Chloro-2-(4-(3,3,3-trifluoropropyl)piperazin-1-yl)phenylcarbamoyl)-2,3-difluorobenzylamino)-4-oxobutanoic acid] was run?
**A.** 103 nM

**Q.** For `O=C(Nc1ccc(Cl)cc1N1CCN(CCC(F)(F)F)CC1)c1ccc(CNC(=O)[C@H]2CC[C@@H](O)CC2)c(F)c1F` [Compound 330, N-(4-Chloro-2-(4-(3,3,3-trifluoropropyl)piperazin-1-yl)phenyl)-2,3-difluoro-4-(((1s,4s)-4-hydroxycyclohexanecarboxamido)methyl)benzamide], which IC50 is on record?
**A.** 11.7 nM

**Q.** With `O=C(Nc1ccc(Cl)cc1N1CCN(CCC(F)(F)F)CC1)c1ccc(CNC(=O)[C@H]2CC[C@@H](OP(=O)(O)O)CC2)c(F)c1F` [Compound 392, (1s,4s)-4-(4-(4-Chloro-2-(4-(3,3,3-trifluoropropyl)piperazin-1-yl)phenylcarbamoyl)-2,3-difluorobenzylcarbamoyl)cyclohexyl dihydrogen phosphate] as the compound, how does the IC50 read?
**A.** 6.13 nM

**Q.** For `O=C(Nc1ccc(Cl)cc1N1CCN(CCC(F)(F)F)CC1)c1ccc(CN2C(=O)CNC2=O)c(F)c1F` [Compound 428, N-(4-Chloro-2-(4-(3,3,3-trifluoropropyl)piperazin-1-yl)phenyl)-4-((2,5-dioxoimidazolidin-1-yl)methyl)-2,3-difluorobenzamide], which IC50 is on record?
**A.** 73.3 nM

biological target: T2, rat Mas receptor (Rattus norvegicus, UniProt P12526); experiment: HTRF IP1 assay, HEK293 cells expressing rat Mas receptor; format: cell-based; conditions: HTRF IP1 assay, rat Mas receptor (Table B.1); read-out: IC50
T2 construct: expressed in transfected cells; host or cells: HEK293 (ATCC CRL-1573)
T2 sequence (P12526 1-324): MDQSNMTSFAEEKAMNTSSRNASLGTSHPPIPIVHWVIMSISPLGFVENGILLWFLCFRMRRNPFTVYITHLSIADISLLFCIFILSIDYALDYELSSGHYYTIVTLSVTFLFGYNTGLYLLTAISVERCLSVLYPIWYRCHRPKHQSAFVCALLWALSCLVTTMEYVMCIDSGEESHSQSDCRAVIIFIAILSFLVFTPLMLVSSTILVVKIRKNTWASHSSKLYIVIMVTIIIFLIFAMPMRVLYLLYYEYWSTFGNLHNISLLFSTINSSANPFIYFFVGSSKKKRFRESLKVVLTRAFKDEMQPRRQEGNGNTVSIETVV
Source text: as §1

**Q.** How did the IC50 turn out when `O=C(Nc1ccc(Cl)cc1N1CCN(CCC(F)(F)F)CC1)c1ccc2c(c1)CN(CCCO)CC2` [Compound 16, N-(4-Chloro-2-(4-(3,3,3-trifluoropropyl)piperazin-1-yl)phenyl)-2-(3-hydroxypropyl)-1,2,3,4-tetrahydroisoquinoline-7-carboxamide] was run?
**A.** 316 nM

**Q.** `CCOC(=O)CN1Cc2ccc(C(=O)Nc3ccc(Cl)cc3N3CCN(CCC(F)(F)F)CC3)cc2C1` [Compound 27, Ethyl 2-(5-(4-chloro-2-(4-(3,3,3-trifluoropropyl)piperazin-1-yl)phenylcarbamoyl)isoindolin-2-yl)acetate] was tested. Which IC50 did it give?
**A.** 650 nM

**Q.** With `O=C(Nc1ccc(Cl)cc1N1CCN(CCC(F)(F)F)CC1)c1ccc(N2CCCC2)cc1` [Compound 41, N-(4-Chloro-2-(4-(3,3,3-trifluoropropyl)piperazin-1-yl)phenyl)-4-(pyrrolidin-1-yl)benzamide] as the compound, how does the IC50 read?
**A.** 582 nM
